Residues, ends and D or L forms follow the SMILES beside them. *: point of attachment. Bz = O=C(c1ccccc1)*
Assays:
[1] = target: Genome polyprotein (dengue virus type 2) (UniProt P29990); experiment: Inhibition of Dengue virus serotype 2 NS2B-NS3 protease expressed in Escherichia coli BL21 lambda (DE3) cells at 50 uM using Abz-Nle-Lys-Arg-Arg-Ser-3-(NO2)Tyr as substrate preincubated for 15 mins followed by substrate addition and measured for 15 mins by FRET assay relative to control
Prothrombin = Prothrombin (Homo sapiens, UniProt P00734); experiment: Inhibition of thrombin (unknown origin) at 25 uM using Boc-Val-Pro-Arg-AMC as substrate preincubated for 15 mins followed by substrate addition and measured for 15 mins by fluorimetric assay; conditions: 0.25 h
[2] = Cytotoxicity against human HeLa cells assessed as reduction in cell viability measured after 24 hrs by celltiter-blue assay; assay type: cell-based
[3] = target: Genome polyprotein (dengue virus type 2) (UniProt P29990); experiment: Inhibition of Dengue virus serotype 2 NS2B-NS3 protease transfected in human HeLa cells at 12.5 uM measured after 24 hrs by Renilla-luciferase reporter gene assay relative to control; assay type: cell-based
[4] = target: Genome polyprotein (West Nile virus) (UniProt P06935); experiment: Inhibition of West Nile virus NS2B-NS3 protease expressed in Escherichia coli BL21 lambda (DE3) cells at 50 uM using Abz-Gly-Leu-Lys-Arg-Gly-Gly-3-(NO2)Tyr as substrate preincubated for 15 mins followed by substrate addition measured for 15 mins by fluorimetric analysis relative to control
Genome polyprotein (West Nile virus), sequence (P06935 whole entry): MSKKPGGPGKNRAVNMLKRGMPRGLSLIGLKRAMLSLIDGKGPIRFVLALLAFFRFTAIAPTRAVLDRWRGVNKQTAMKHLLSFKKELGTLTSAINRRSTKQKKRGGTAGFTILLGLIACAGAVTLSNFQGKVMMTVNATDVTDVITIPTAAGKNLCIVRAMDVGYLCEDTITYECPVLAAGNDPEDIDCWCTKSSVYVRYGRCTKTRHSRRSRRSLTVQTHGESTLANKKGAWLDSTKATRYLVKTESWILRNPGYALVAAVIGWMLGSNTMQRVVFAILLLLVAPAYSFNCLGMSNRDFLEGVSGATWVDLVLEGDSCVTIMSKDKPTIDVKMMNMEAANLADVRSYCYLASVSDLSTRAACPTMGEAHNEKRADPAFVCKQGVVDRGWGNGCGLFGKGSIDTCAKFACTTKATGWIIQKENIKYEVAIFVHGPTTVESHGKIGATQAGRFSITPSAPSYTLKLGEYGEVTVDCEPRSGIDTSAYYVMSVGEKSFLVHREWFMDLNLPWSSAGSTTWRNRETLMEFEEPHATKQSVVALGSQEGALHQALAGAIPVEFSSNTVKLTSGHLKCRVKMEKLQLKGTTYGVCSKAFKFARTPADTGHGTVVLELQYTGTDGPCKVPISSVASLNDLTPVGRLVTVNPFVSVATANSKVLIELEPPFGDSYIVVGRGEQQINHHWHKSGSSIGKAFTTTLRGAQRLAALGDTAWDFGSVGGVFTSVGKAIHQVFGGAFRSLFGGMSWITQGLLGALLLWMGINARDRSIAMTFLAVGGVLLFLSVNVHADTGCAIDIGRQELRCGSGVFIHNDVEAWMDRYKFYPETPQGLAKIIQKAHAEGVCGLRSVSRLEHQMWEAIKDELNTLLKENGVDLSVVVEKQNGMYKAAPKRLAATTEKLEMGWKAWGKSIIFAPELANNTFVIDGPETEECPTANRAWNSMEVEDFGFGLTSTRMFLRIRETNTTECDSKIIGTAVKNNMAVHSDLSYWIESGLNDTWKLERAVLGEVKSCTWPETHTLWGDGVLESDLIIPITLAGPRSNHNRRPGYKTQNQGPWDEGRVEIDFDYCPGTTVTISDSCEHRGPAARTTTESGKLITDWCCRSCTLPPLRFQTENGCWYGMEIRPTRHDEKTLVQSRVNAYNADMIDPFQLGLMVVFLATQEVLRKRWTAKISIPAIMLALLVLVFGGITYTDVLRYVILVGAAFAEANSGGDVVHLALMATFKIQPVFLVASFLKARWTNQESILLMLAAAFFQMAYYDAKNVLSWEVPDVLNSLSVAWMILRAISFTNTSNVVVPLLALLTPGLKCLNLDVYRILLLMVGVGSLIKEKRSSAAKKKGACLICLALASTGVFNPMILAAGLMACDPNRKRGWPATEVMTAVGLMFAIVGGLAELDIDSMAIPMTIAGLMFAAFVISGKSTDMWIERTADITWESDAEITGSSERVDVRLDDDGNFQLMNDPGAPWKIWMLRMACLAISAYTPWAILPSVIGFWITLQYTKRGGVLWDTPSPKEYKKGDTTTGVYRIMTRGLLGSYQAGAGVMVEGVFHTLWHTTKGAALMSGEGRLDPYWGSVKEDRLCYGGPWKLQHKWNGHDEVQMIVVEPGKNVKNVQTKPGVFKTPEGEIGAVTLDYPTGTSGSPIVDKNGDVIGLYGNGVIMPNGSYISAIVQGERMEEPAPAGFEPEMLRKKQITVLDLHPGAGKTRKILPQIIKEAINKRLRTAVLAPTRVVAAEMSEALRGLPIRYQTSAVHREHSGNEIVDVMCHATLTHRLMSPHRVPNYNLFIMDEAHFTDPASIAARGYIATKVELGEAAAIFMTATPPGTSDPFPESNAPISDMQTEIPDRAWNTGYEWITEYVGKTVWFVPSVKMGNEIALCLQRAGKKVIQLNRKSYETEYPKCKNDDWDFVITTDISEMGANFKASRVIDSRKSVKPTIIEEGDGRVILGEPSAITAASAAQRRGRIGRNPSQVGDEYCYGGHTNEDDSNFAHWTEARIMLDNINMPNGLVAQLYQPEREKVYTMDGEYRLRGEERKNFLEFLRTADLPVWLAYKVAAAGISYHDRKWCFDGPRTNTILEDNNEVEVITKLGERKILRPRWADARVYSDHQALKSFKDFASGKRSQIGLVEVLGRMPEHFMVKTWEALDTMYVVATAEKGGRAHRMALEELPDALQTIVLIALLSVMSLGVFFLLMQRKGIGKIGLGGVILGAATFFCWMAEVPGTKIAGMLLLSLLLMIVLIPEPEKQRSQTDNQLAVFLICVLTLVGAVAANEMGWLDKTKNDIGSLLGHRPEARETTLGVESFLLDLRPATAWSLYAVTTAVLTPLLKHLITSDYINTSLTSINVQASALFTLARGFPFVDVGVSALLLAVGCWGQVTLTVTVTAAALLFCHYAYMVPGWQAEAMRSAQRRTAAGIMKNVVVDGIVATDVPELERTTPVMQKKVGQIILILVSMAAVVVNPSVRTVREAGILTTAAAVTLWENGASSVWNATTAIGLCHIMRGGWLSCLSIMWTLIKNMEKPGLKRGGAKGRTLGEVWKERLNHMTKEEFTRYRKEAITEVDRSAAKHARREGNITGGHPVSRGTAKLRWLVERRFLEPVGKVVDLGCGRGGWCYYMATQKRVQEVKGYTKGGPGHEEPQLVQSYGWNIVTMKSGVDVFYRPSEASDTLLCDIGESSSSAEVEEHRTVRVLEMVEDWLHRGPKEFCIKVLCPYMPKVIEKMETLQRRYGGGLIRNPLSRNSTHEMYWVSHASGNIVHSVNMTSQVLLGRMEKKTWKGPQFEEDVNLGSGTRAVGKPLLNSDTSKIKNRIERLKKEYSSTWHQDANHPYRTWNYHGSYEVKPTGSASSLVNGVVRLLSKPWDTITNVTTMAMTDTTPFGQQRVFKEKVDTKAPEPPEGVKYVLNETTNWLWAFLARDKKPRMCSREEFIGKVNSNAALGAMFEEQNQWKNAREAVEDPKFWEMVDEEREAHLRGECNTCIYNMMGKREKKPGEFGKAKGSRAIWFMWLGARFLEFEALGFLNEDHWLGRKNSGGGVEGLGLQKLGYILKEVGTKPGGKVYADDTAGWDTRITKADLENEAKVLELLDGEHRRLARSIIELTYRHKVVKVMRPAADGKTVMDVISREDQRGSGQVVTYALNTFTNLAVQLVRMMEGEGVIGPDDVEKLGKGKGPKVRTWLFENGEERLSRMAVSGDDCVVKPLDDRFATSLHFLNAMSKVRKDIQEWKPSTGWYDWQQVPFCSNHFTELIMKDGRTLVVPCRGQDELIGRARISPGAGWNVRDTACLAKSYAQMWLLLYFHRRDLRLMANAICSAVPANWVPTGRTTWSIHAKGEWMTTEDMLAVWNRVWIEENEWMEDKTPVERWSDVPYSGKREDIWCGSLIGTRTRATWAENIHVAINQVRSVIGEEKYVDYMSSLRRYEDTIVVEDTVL

Trypsin = Trypsin (Homo sapiens, UniProt P07477+P07478+P35030); experiment: Inhibition of trypsin (unknown origin) at 50 uM using Boc-Val-Pro-Arg-AMC as substrate preincubated for 15 mins followed by substrate addition and measured for 15 mins by fluorimetric assay relative to control; assay type: protein assay; conditions: 0.25 h, 50 µM
Genome polyprotein [5] = target: T1, Genome polyprotein (dengue virus type 2, UniProt P29990); experiment: Inhibition of Dengue virus serotype 2 NS2B-NS3 protease transfected in human HeLa cells measured after 24 hrs by Renilla-luciferase reporter gene assay; assay type: cell-based
Genome polyprotein [6] = target: Genome polyprotein (West Nile virus, UniProt P06935); experiment: Inhibition of West Nile virus NS2B-NS3 protease expressed in Escherichia coli BL21 lambda (DE3) cells using Abz-Gly-Leu-Lys-Arg-Gly-Gly-3-(NO2)Tyr as substrate preincubated for 15 mins followed by substrate addition measured for 15 mins by fluorimetric analysis
Genome polyprotein (West Nile virus, UniProt P06935), sequence (P06935 1371-1501 limits assumed): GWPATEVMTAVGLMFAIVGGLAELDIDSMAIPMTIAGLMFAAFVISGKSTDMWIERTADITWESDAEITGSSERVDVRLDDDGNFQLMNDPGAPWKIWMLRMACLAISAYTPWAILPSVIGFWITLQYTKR
Genome polyprotein (West Nile virus, UniProt P06935), sequence (P06935 1502-2120 limits assumed): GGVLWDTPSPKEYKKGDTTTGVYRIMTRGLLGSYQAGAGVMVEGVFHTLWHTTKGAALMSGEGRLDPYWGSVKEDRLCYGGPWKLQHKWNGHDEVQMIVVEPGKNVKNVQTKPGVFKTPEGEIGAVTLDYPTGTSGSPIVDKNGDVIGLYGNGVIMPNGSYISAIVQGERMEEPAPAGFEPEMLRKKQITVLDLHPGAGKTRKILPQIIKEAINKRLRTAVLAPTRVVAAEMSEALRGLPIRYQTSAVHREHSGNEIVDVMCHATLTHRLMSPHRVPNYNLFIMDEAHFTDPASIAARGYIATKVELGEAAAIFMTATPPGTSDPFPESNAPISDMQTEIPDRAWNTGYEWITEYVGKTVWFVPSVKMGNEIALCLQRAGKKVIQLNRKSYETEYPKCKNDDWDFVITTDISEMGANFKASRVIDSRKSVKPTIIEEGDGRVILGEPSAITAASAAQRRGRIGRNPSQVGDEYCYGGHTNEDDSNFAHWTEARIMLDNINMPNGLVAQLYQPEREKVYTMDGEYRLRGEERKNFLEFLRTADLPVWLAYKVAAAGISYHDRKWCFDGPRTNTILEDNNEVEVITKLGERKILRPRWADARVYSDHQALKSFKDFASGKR

Genome polyprotein [7] = target: T1, Genome polyprotein; experiment: Inhibition of Dengue virus serotype 2 NS2B-NS3 protease expressed in Escherichia coli BL21 lambda (DE3) cells using Abz-Nle-Lys-Arg-Arg-Ser-3-(NO2)Tyr as substrate preincubated for 15 mins followed by substrate addition and measured for 15 mins by FRET assay

Structure (SMILES)	inhibition [1] [%]	inhibition (INH) (Prothrombin)	CC50 at 24 h [2] [µM]	inhibition [3] [%]	inhibition [4] [%]	inhibition (INH) (Trypsin)	EC50 (Genome polyprotein [5]) [µM]	IC50 (Genome polyprotein [6]) [µM]	IC50 (Genome polyprotein [7]) [µM]
CCCCCC(=O)N[C@H](C(=O)Nc1ccc(N)cc1)c1ccc(OCc2ccccc2)cc1.O=C(O)C(F)(F)F	13.2	Not Active	> 50	49.5	10.7	Not Active			
CCCCCC(=O)N[C@H](C(=O)NCc1cccc(CNC(=N)N)c1)c1ccc(OCc2ccccc2)cc1	43.8	Not Active	> 50	47.4	32.7	Not Active			
CC(=O)N[C@H](C(=O)NCc1ccc(NC(=N)N)cc1)c1ccc(OCc2ccccc2)cc1.O=C(O)C(F)(F)F	< 10	Not Active	> 50	28.9	< 10	Not Active			
CCCCCC(=O)N[C@H](C(=O)Nc1ccc(NC(=N)N)cc1)c1ccc(OCc2ccccc2)cc1.O=C(O)C(F)(F)F	62.6	Not Active	≥ 12.5		53.8	Not Active			
CCCCCC(=O)N[C@H](C(=O)NCCCCN)c1ccc(OCc2ccccc2)cc1	21.3	Not Active	> 50	45.8	< 10	Not Active			
CCCCCC(=O)N[C@H](C(=O)N[C@@H](CCCCN)C(N)=O)c1ccc(OCc2ccccc2)cc1	< 10	Not Active	> 50	11.1	< 10	Not Active			
CCCCCC(=O)N[C@H](C(=O)NCCCCCCN)c1ccc(OCc2ccccc2)cc1	18.1	Not Active	> 50	45.8	< 10	Not Active	13		
CCCCCC(=O)N[C@@H](C(=O)NCc1ccc(CN)cc1)c1ccc(OCc2ccc(Cl)c(Cl)c2)cc1.O=C(O)C(F)(F)F	95.2	Not Active	< 12.5		100	Not Active		11	3.1
N=C(N)Nc1ccc(CNC(=O)[C@@H](NC(=O)c2ccccc2-c2ccccc2)c2ccc(OCc3ccccc3)cc2)cc1.O=C(O)C(F)(F)F	93.3	Not Active	> 50	30.1	88.1	Not Active		35	24
N=C(N)NCCC[C@H](NC(=O)[C@H](Cc1ccc(CN)cc1)NC(=O)c1ccccc1)B(O)O		Not Active				Not Active			
CCCCCC(=O)N[C@H](C(=O)NCc1ccc(C#N)cc1)c1ccc(OCc2ccccc2)cc1	< 10	Not Active	> 50	28.3	25.6	Not Active			
CCCCCC(=O)N[C@H](C(=O)NCc1ccncc1)c1ccc(OCc2ccccc2)cc1	< 10	Not Active	> 50	40.6	< 10	Not Active			
CCCCCC(=O)N[C@H](C(=O)NCc1ccc(NC(=N)N)cc1)c1ccccc1.O=C(O)C(F)(F)F	< 10	Not Active	> 50	18.8	< 10	Not Active			
CCCCCC(=O)N[C@H](C(=O)NCc1ccc(NC(=N)N)cc1)c1ccc(OCc2ccc(C#N)cc2)cc1.O=C(O)C(F)(F)F	74.3	Not Active	> 50	12.7	24.8	Not Active			40
N=C(N)NCCC[C@H](NC(=O)c1ccccc1)C(=O)N[C@@H](CCCCN)C(=O)NCC(N)=O (Bz-Arg-Lys-Gly-NH2)	68.6	Not Active		< 10	15.3	Not Active			23
CCCCCC(=O)N[C@H](C(=O)NCc1ccc(NC(=N)N)cc1)c1ccc(OCc2ccc(C(C)(C)C)cc2)cc1.O=C(O)C(F)(F)F	98.1	Not Active	> 12.5	38.7	98.9	Not Active		16	13
N=C(N)Nc1ccc(CNC(=O)[C@@H](NC(=O)c2ccc(OCc3ccc(Cl)cc3)cc2)c2ccc(OCc3ccccc3)cc2)cc1.O=C(O)C(F)(F)F	98.7	Not Active	> 12.5	44.6	103	Not Active		2.5	2.2
CCCCCC(=O)N[C@H](C(=O)NCc1ccc(NC(=O)CN)cc1)c1ccc(OCc2ccccc2)cc1	28.2	Not Active	> 50	10.1	< 10	Not Active			
CCCCCC(=O)N[C@H](C(=O)NCc1ccc(NC(=N)N)cc1)c1ccc(OCc2cccc(OC)c2)cc1.O=C(O)C(F)(F)F	32.5	Not Active	> 50	26	15.7	Not Active			
CCCCCC(=O)N[C@H](C(=O)NCCN)c1ccc(OCc2ccccc2)cc1	< 10	Not Active	> 50	44	< 10	Not Active			
CCCCCC(=O)N[C@H](C(=O)NCc1ccc(N)cc1)c1ccc(OCc2ccccc2)cc1.O=C(O)C(F)(F)F	13	Not Active	> 50	43	13.5	Not Active			
CCCCCC(=O)N[C@H](C(=O)Nc1ccc(CN)cc1)c1ccc(OCc2ccccc2)cc1.O=C(O)C(F)(F)F	26.5	Not Active	< 12.5		37.6	Not Active			
CCCCCC(=O)N[C@H](C(=O)NCc1ccc(C(=O)NN)cc1)c1ccc(OCc2ccccc2)cc1	28.3	Not Active	> 50	30.7	55	Not Active			
CCCCCC(=O)N[C@H](C(=O)NCc1ccccc1)c1ccc(OCc2ccccc2)cc1	< 10	Not Active	> 50	< 10	< 10	Not Active			
N=C(N)Nc1ccc(CNC(=O)[C@@H](NC(=O)CC2CCCCC2)c2ccc(OCc3ccccc3)cc2)cc1.O=C(O)C(F)(F)F	100	Not Active	> 50	41.7	99.5	Not Active		28	9
CCCCCC(=O)N[C@@H](C(=O)NCc1ccc(NC(=N)N)cc1)c1ccc(OCc2ccc(C(F)(F)F)cc2)cc1.O=C(O)C(F)(F)F	96.7	Not Active	> 50	44.6	102	Not Active		14	6.6
CCCCCC(=O)N[C@H](C(=O)NCc1ccc(NC(N)=O)cc1)c1ccc(OCc2ccccc2)cc1	23.1	Not Active	> 50	24	34.2	Not Active			
N=C(N)Nc1ccc(CNC(=O)[C@@H](NC(=O)c2ccccc2)c2ccc(OCc3ccccc3)cc2)cc1.O=C(O)C(F)(F)F	39	Not Active	> 50	10.5	18.9	Not Active			
N=C(N)NCCC[C@H](NC(=O)c1ccc(/C=C2\SC(=O)N(C3CCC3)C2=O)cc1)C(=O)N[C@@H](CCCCN)C(=O)N[C@H](C(N)=O)c1ccccc1		Not Active				Not Active			
